# Experimental data as given in ChEMBL document CHEMBL5143608, “Peptide-based long-acting co-agonists of GLP-1 and cholecystokinin 1 receptors as novel anti-diabesity agents” (Eur J Med Chem, 2022).
# The source made the active and inactive calls. No cut-off for these calls is given here. Where a SMILES comes first, the peptide text is derived from it. [ ]: non-standard residue; d: D form. Aib = CC(C)(N)C(=O)O
# Tests used:
# [1] = target: Glucagon-like peptide 1 receptor (Homo sapiens, UniProt P43220); assay: Agonist activity at human GLP-1R expressed in HEK293 cells assessed as cAMP release incubated for 20 min by HTRF analysis; format: functional, cell-based
# Sequence of Glucagon-like peptide 1 receptor (P43220 whole entry): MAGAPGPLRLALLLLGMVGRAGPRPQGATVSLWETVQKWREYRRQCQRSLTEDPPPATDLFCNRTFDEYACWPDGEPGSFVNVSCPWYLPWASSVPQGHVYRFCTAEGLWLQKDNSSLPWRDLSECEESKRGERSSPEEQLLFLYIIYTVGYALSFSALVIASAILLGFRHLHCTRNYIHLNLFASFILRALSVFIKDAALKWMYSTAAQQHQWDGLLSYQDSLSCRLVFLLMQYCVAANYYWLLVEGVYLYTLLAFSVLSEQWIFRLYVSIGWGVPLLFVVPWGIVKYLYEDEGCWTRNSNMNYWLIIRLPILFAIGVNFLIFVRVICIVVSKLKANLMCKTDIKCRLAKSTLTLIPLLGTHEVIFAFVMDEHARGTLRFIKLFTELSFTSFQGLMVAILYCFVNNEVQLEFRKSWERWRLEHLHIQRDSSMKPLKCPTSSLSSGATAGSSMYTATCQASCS
# [2] = target: T1, Cholecystokinin receptor type A (Homo sapiens, UniProt P32238); assay: Agonist activity at human CCK1R expressed in HEK293 cells assessed as ERK1/2 phosphorylation incubated for 5 mins by AlphaScreen assay; format: functional, cell-based; conditions: hek293
# T1 sequence (P32238 whole entry): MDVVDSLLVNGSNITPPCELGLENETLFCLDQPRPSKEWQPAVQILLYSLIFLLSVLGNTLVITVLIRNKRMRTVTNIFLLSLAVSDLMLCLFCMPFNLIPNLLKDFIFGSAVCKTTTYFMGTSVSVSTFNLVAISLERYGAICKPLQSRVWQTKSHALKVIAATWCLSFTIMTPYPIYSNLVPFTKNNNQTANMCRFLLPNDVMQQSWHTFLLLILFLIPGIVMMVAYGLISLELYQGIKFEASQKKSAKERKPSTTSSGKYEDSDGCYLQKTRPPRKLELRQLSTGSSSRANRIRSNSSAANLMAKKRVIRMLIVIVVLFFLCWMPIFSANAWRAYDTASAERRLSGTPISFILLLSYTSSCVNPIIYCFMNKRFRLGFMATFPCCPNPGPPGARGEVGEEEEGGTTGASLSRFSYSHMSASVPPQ
# [3] = target: T2, CCK2R (gastrin/cholecystokinin type B receptor) (Homo sapiens, UniProt P32239); assay: Agonist activity at human CCK2R expressed in HEK293 cells assessed as ERK1/2 phosphorylation incubated for 5 mins by AlphaScreen assay; format: functional, cell-based; conditions: human, HEK293 cells expressing human CCK2R
# T2 sequence (P32239 whole entry): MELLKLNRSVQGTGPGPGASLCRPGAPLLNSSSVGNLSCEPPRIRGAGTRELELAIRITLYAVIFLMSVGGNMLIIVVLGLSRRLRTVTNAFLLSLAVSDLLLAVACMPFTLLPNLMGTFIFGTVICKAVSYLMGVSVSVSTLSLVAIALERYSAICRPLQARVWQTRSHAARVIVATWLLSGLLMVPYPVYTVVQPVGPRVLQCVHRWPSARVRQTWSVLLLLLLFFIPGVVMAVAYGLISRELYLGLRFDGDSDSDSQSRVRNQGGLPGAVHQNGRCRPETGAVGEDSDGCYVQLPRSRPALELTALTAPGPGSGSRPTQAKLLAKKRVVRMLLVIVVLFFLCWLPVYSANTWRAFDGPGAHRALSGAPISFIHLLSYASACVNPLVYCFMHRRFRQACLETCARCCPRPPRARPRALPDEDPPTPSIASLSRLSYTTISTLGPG
# Mus musculus [4] = assay: Hypoglycemic activity in ICR mouse assessed as improvement in glucose tolerance at 25 nmol/kg, ip administered 30 min before oral glucose administration and measured upto 120 mins by OGTT; format: functional, organism-based
# Mus musculus [5] = assay: Anorectic activity in ICR mouse assessed as decrease in food intake at 25 nmol/kg, ip and measured after 9 hrs; format: functional, organism-based
# Mus musculus [6] = assay: Anorectic activity in ICR mouse assessed as decrease in food intake at 25 nmol/kg, ip and measured after 24 hrs; format: functional, organism-based
SMILES,EC50 ([1]; hek293),EC50 [2],EC50 at 5 min [3],Activity (Mus musculus [4]),Activity (Mus musculus [5]),Activity (Mus musculus [6]),EC50 [1]
CCCC[C@H](NC(=O)[C@H](Cc1ccc(CS(=O)(=O)O)cc1)NC(=O)[C@H](CC(=O)O)NC(=O)COCCOCCNC(=O)COCCOCCNC(=O)[C@H](CCCCN)NC(=O)CNC(=O)[C@H](CCCCNC(=O)COCCOCCNC(=O)COCCOCCNC(=O)CC[C@H](NC(=O)CCCCCCCCCCCCCCCCC(=O)O)C(=O)O)NC(=O)[C@@H](NC(=O)[C@H](CC(C)C)NC(=O)[C@H](Cc1c[nH]c2ccccc12)NC(=O)[C@H](CCC(=O)O)NC(=O)[C@@H](NC(=O)[C@H](Cc1ccccc1)NC(=O)[C@H](CCC(=O)O)NC(=O)[C@H](CCCCN)NC(=O)[C@H](C)NC(=O)[C@H](C)NC(=O)[C@H](CCC(=O)O)NC(=O)[C@H](CCC(=O)O)NC(=O)[C@H](CCC(=O)O)NC(=O)[C@H](CC(C)C)NC(=O)[C@@H](NC(=O)[C@H](CCC(=O)O)NC(=O)[C@@H](NC(=O)[C@@H](NC(=O)[C@H](CC(=O)O)NC(=O)[C@H](CC(N)=O)NC(=O)[C@@H](NC(=O)[C@H](Cc1ccc(O)cc1)NC(=O)[C@@H](NC(=O)CNC(=O)[C@H](CCC(=O)O)NC(=O)C(C)(C)NC(=O)[C@@H](N)Cc1cnc[nH]1)[C@@H](C)O)[C@@H](C)O)C(C)C)[C@@H](C)O)[C@@H](C)O)[C@@H](C)CC)[C@@H](C)CC)C(=O)NCC(=O)N[C@@H](Cc1c[nH]c2ccccc12)C(=O)N[C@@H](CCCC)C(=O)N(C)[C@H](CC(=O)O)C(=O)N(C)[C@@H](Cc1ccccc1)C(N)=O,0.31 nM,1.03 nM,> 100 nM,Active,Active,Active,–
CCCC[C@H](NC(=O)[C@H](Cc1ccc(CS(=O)(=O)O)cc1)NC(=O)[C@H](CC(=O)O)NC(=O)COCCOCCNC(=O)COCCOCCNC(=O)[C@H](CCCNC(=N)N)NC(=O)CNC(=O)[C@H](CCCCN)NC(=O)[C@@H](NC(=O)[C@H](CC(C)C)NC(=O)[C@H](Cc1c[nH]c2ccccc12)NC(=O)[C@H](C)NC(=O)[C@@H](NC(=O)[C@H](Cc1ccccc1)NC(=O)[C@H](CCC(=O)O)NC(=O)[C@H](CCCCN)NC(=O)[C@H](C)NC(=O)[C@H](C)NC(=O)[C@H](CCC(N)=O)NC(=O)CNC(=O)[C@H](CCC(=O)O)NC(=O)[C@H](CC(C)C)NC(=O)[C@H](Cc1ccc(O)cc1)NC(=O)[C@H](CO)NC(=O)[C@H](CO)NC(=O)[C@@H](NC(=O)[C@H](CC(=O)O)NC(=O)[C@H](CO)NC(=O)[C@@H](NC(=O)[C@H](Cc1ccccc1)NC(=O)[C@@H](NC(=O)CNC(=O)[C@H](CCC(=O)O)NC(=O)[C@H](C)NC(=O)[C@@H](N)Cc1cnc[nH]1)[C@@H](C)O)[C@@H](C)O)C(C)C)[C@@H](C)CC)C(C)C)C(=O)NCC(=O)N[C@@H](Cc1c[nH]c2ccccc12)C(=O)N[C@@H](CCCC)C(=O)N(C)[C@H](CC(=O)O)C(=O)N(C)[C@@H](Cc1ccccc1)C(N)=O,–,1.14 nM,> 100 nM,Active,Active,Active,–
CCCC[C@H](NC(=O)[C@H](Cc1ccc(CS(=O)(=O)O)cc1)NC(=O)[C@H](CC(=O)O)NC(=O)COCCOCCNC(=O)COCCOCCNC(=O)[C@H](CCCCN)NC(=O)CNC(=O)[C@H](CCCCN)NC(=O)[C@@H](NC(=O)[C@H](CC(C)C)NC(=O)[C@H](Cc1c[nH]c2ccccc12)NC(=O)[C@H](CCC(=O)O)NC(=O)[C@@H](NC(=O)[C@H](Cc1ccccc1)NC(=O)[C@H](CCC(=O)O)NC(=O)[C@H](CCCCN)NC(=O)[C@H](C)NC(=O)[C@H](C)NC(=O)[C@H](CCC(=O)O)NC(=O)[C@H](CCC(=O)O)NC(=O)[C@H](CCC(=O)O)NC(=O)[C@H](CC(C)C)NC(=O)[C@@H](NC(=O)[C@H](CCC(=O)O)NC(=O)[C@@H](NC(=O)[C@@H](NC(=O)[C@H](CC(=O)O)NC(=O)[C@H](CC(N)=O)NC(=O)[C@@H](NC(=O)[C@H](Cc1ccc(O)cc1)NC(=O)[C@@H](NC(=O)CNC(=O)[C@H](CCC(=O)O)NC(=O)C(C)(C)NC(=O)[C@@H](N)Cc1cnc[nH]1)[C@@H](C)O)[C@@H](C)O)C(C)C)[C@@H](C)O)[C@@H](C)O)[C@@H](C)CC)[C@@H](C)CC)C(=O)NCC(=O)N[C@@H](Cc1c[nH]c2ccccc12)C(=O)N[C@@H](CCCC)C(=O)N(C)[C@H](CC(=O)O)C(=O)N(C)[C@@H](Cc1ccccc1)C(N)=O,0.092 nM,0.95 nM,> 100 nM,Active,Active,Active,–
CCCC[C@H](NC(=O)[C@H](Cc1ccc(CS(=O)(=O)O)cc1)NC(=O)[C@H](CC(=O)O)NC(=O)COCCOCCNC(=O)COCCOCCNC(=O)[C@H](CCCNC(=N)N)NC(=O)CNC(=O)[C@H](CCCCNC(=O)COCCOCCNC(=O)COCCOCCNC(=O)CC[C@H](NC(=O)CCCCCCCCCCCCCCCCC(=O)O)C(=O)O)NC(=O)[C@@H](NC(=O)[C@H](CC(C)C)NC(=O)[C@H](Cc1c[nH]c2ccccc12)NC(=O)[C@H](C)NC(=O)[C@@H](NC(=O)[C@H](Cc1ccccc1)NC(=O)[C@H](CCC(=O)O)NC(=O)[C@H](CCCCN)NC(=O)[C@H](C)NC(=O)[C@H](C)NC(=O)[C@H](CCC(N)=O)NC(=O)CNC(=O)[C@H](CCC(=O)O)NC(=O)[C@H](CC(C)C)NC(=O)[C@H](Cc1ccc(O)cc1)NC(=O)[C@H](CO)NC(=O)[C@H](CO)NC(=O)[C@@H](NC(=O)[C@H](CC(=O)O)NC(=O)[C@H](CO)NC(=O)[C@@H](NC(=O)[C@H](Cc1ccccc1)NC(=O)[C@@H](NC(=O)CNC(=O)[C@H](CCC(=O)O)NC(=O)[C@H](C)NC(=O)[C@@H](N)Cc1cnc[nH]1)[C@@H](C)O)[C@@H](C)O)C(C)C)[C@@H](C)CC)C(C)C)C(=O)NCC(=O)N[C@@H](Cc1c[nH]c2ccccc12)C(=O)N[C@@H](CCCC)C(=O)N(C)[C@H](CC(=O)O)C(=O)N(C)[C@@H](Cc1ccccc1)C(N)=O,–,1.19 nM,> 100 nM,–,Active,Active,–
CC[C@H](C)[C@H](NC(=O)[C@H](CC(C)C)NC(=O)[C@H](Cc1c[nH]c2ccccc12)NC(=O)[C@H](CCC(=O)O)NC(=O)[C@@H](NC(=O)[C@H](Cc1ccccc1)NC(=O)[C@H](CCC(=O)O)NC(=O)[C@H](CCCCN)NC(=O)[C@H](C)NC(=O)[C@H](C)NC(=O)[C@H](CCC(=O)O)NC(=O)[C@H](CCC(=O)O)NC(=O)[C@H](CCC(=O)O)NC(=O)[C@H](CC(C)C)NC(=O)[C@@H](NC(=O)[C@H](CCC(=O)O)NC(=O)[C@@H](NC(=O)[C@@H](NC(=O)[C@H](CC(=O)O)NC(=O)[C@H](CC(N)=O)NC(=O)[C@@H](NC(=O)[C@H](Cc1ccc(O)cc1)NC(=O)[C@@H](NC(=O)CNC(=O)[C@H](CCC(=O)O)NC(=O)C(C)(C)NC(=O)[C@@H](N)Cc1cnc[nH]1)[C@@H](C)O)[C@@H](C)O)C(C)C)[C@@H](C)O)[C@@H](C)O)[C@@H](C)CC)C(=O)N[C@@H](CCCCN)C(=O)NCC(=O)N[C@@H](CCCCN)C(N)=O (H-H[Aib]EGTYTNDVTETLEEEAAKEFIEWLIKGK-NH2),–,–,–,–,–,–,0.056 nM
